ChEMBL document CHEMBL1157539, “Thousands of chemical starting points for antimalarial lead identification” (Nature, 2010)

System: Plasmodium falciparum
Assay: GSK_TCMDC: Inhibition of Plasmodium falciparum 3D7 in whole erythrocytes, using parasite LDH activity as an index of growth.
Assay type: functional, organism-based

| Compound | XC50 (Plasmodium falciparum, 3D7) | XC50 |
| --- | --- | --- |
| CC1(C)[C@H]2CC[C@@H](CNc3nc(NCC(=O)Nc4ccc5ccccc5c4)nc(N4CCC(N5CCCC5)CC4)n3)[C@@H]1C2 | 1190 nM |  |
| Cc1cc(Nc2ccc(Oc3ccc(Cl)cc3)cc2)nc(N)n1 | 616 nM |  |
| Cc1sc(NC(=O)c2ccc([N+](=O)[O-])cc2Cl)c(C(N)=O)c1C | 931 nM |  |
| O=C(NC12CC3CC(CC(C3)C1)C2)C(=O)c1c[nH]c2ccccc12 | 232 nM |  |
| CN1CCN(CCCN(Cc2ccc(-c3cccc(CNC4CCCC4)c3)cc2)C(=O)/C=C/c2ccccc2)CC1 | 1330 nM |  |
| COc1ccc2nccc(C(=O)NC3CCC(CCN4CCc5cc(C#N)ccc5C4)CC3)c2c1 (stereo not given) | 1160 nM |  |
| CCC(=O)NC(c1ccco1)c1cc(Cl)c2cccnc2c1O (stereo not given) | 875 nM |  |
| COc1ccc(C=CC(=O)NC2CCC(CN3CCC(c4c[nH]c5ccccc45)CC3)CC2)cc1OC (stereo not given) | 801 nM | 841 nM |
| Cc1ccc(Oc2ccc(CNc3nc(Nc4cccc(F)c4)nc(Nc4cccc(F)c4)n3)cc2)cc1 | 1210 nM |  |
| COc1ccc(-c2ccc(CNC3Cc4ccccc4C3)cc2)cc1S(=O)(=O)NCCN1CCCC1 | 798 nM |  |
| COC(=O)c1ccc2nc(-c3cc(OC)c(O)c(C(=O)NC4CCN(Cc5ccccc5)CC4)c3)[nH]c2c1 | 1180 nM |  |
| C[C@H](Cc1ccc(OCCCOc2ccc(C[C@@H](C)NC[C@H](O)c3cccc(Cl)c3)cc2)cc1)NC[C@H](O)c1cccc(Cl)c1 | 780 nM |  |
| CC(C)CNCc1cccc(-c2ccc(CN(C(=O)NCCc3ccccc3)C3CCN(Cc4ccccc4)CC3)cc2)c1 | 764 nM |  |
| Cc1cc(NC2CCCC2)nc(Nc2ccccc2C)n1 | 1350 nM |  |
| COc1ccc2nccc([C@@H](O)CN3CCC(NC(=O)C(c4cc5ccccc5o4)N4CCN(c5ccc(F)cc5)CC4)CC3)c2c1 (stereo not given in full) | 197 nM |  |
| Cc1[nH]c(C)c(-c2ccc(Br)cc2)c(=O)c1Cl | 844 nM |  |
| COc1cc2nc(N(C)C3CCN(Cc4ccccc4)CC3)nc(N)c2cc1OC | 334 nM |  |
| Cc1ccccc1C1CCN(C2CCC(NC(=O)/C=C/c3cc(F)ccc3C(F)(F)F)CC2)CC1 (stereo not given) | 953 nM |  |
| O=c1cc(NCCCNCc2ccc(C(F)(F)F)c(F)c2)[nH]c2ccccc12 | 1190 nM |  |
| COc1ccc2nccc([C@@H](O)CN3CCC(NC(=O)c4cc5c(F)cc(F)cc5[nH]4)CC3)c2n1 | 1390 nM |  |
| COc1cc(OCCCN(C)Cc2ccc(OC)c(OC)c2)ccc1NC(=O)c1cccc2c(O)c3cccc(F)c3nc12 | 891 nM |  |
| N#Cc1cc(C(=O)c2cc(Br)ccc2O)cn(C2CCCCC2)c1=O | 910 nM |  |
| CCOc1ccc(C(=O)Nc2ccc(-c3nc4ccccc4[nH]3)cc2)cc1[N+](=O)[O-] | 591 nM |  |
| O=C(/C=C/c1cccc(Cl)c1)NCCCCCN1CCC(c2c[nH]c3ccccc23)CC1 | 988 nM |  |
| N#Cc1cccc(C(=O)Nc2ccc(-c3cccc(CN4CCCC4)c3)cc2)c1 | 712 nM |  |

| Compound | XC50 (Plasmodium falciparum, 3D7) | XC50 |
| --- | --- | --- |
| COc1ccc(CNCc2cccc(-c3ccc(-c4nc5cccc(C)c5[nH]4)s3)c2)cc1 | 263 nM |  |
| COc1ccc(C=NNc2nc(O)cc(-c3ccccc3)n2)cc1OC | 595 nM |  |
| CC(C)(C)NC(=O)COC(=O)c1c2c(nc3ccccc13)C(=Cc1ccc3c(c1)OCO3)CCC2 | 735 nM |  |
| O=C(Nc1cccc(OC2CCN(Cc3ccccc3)CC2)c1)Nc1cccc([N+](=O)[O-])c1 | 783 nM |  |
| Cc1ccc(C)c(NC(=O)Nc2ccc(C)c(-c3ccc(C(=O)Nc4ccncc4)cc3)c2)c1 | 618 nM |  |
| C#CCCC(=O)Nc1cccc(-c2cccc(-c3nc4cc(C(F)(F)F)ccc4[nH]3)c2)c1 | 805 nM |  |
| Nc1ncc(-c2cc3ccccc3o2)c(N)n1 | 1410 nM |  |
| O=[N+]([O-])c1ccc(C=NNc2nc3ccccc3[nH]2)cc1 | 283 nM |  |
| Cc1cc(NC(=O)NCCN2CCC(NS(=O)(=O)c3ccc(Br)cc3)C2)c2ccccc2n1 (stereo not given) | 602 nM |  |
| CNC(=O)c1cc(S(=O)(=O)Nc2ccc(OC)cc2)cs1 | 1130 nM |  |
| CC(=O)N(Cc1ccc(-c2ccc(CNCCc3ccccc3)cc2)cc1)C1CCN(Cc2ccccc2)CC1 | 939 nM |  |
| O=[N+]([O-])c1ccc(C(O)CNCCc2ccccc2)cc1OCc1ccccc1 (stereo not given) | 912 nM |  |
| Nc1c2c(nc3ccc(NC(=O)c4ccc([N+](=O)[O-])cc4)cc13)CCCC2 | 237 nM |  |
| CN=C(N)c1ccc(NC(=O)C=Cc2ccc(C(=O)Nc3ccc(C(N)=NC)cc3)cc2)cc1 | 31.4 nM |  |
| O=C(Cc1cccc(O)c1)Nc1ccc(-c2cccc(-c3nc4cc(C(F)(F)F)ccc4[nH]3)c2)cc1 | 983 nM |  |
| Nc1nccc2ccc(-c3cccnc3)cc12 | 419 nM |  |
| COc1cc(Cc2cnc(N)nc2N)ccc1OCc1ccc(-c2ccccc2C#N)cc1 | 940 nM |  |
| COc1cc(C)nc2ccc(NC(=O)COCC(=O)Nc3ccc4nc(C)cc(OC)c4c3)cc12 | 917 nM |  |
| O=C(NCCCc1ccccc1)c1csc(C2CCCN(C(=O)c3ccc(O)c(-c4cccc5ccccc45)c3)C2)n1 (stereo not given) | 967 nM |  |
| CCc1cn2c3c(cc(C(=O)N[C@@H](Cc4ccccc4)[C@H](O)CNC4CC4)cc13)N(CC)S(=O)(=O)CC2 | 112 nM |  |
| CCCCc1cc(NCC)nc(Nc2cccc(OC)c2)n1 | 922 nM |  |
| CCCCCCCCOc1ccc(N2C(N)=NC(N)=NC2(C)C)cc1 | 502 nM |  |
| OCC1CCN(Cc2ccc(-c3cccc(-c4nc5cc(F)ccc5[nH]4)c3)cc2)CC1 | 910 nM |  |
| Cc1cc(-c2ccc(Cl)cc2)c2c(N)c(C(=O)Nc3ccc(F)cc3)sc2n1 | 818 nM |  |
| Cc1cc(NC(=O)c2cccs2)ccc1OC1CCN(Cc2ccccc2)C1 (stereo not given) | 895 nM |  |

| Compound | XC50 (Plasmodium falciparum, 3D7) | XC50 |
| --- | --- | --- |
| O=C(NCc1ccc(F)cc1)Nc1ccc(-c2cccc(-c3nc4cc(C(F)(F)F)ccc4[nH]3)c2)cc1 | 946 nM |  |
| Clc1ccccc1CCNCC1CCN(CC2CCCCC2)CC1 | 692 nM |  |
| COc1cccc(C2(NC[C@@H](O)[C@H](Cc3ccccc3)NC(=O)c3ccccc3)CCCCC2)c1 | 729 nM |  |
| COc1cc2nc(NCc3nc4ccccc4[nH]3)nc(N)c2cc1OC | 885 nM |  |
| COc1ccc2nccc([C@@H](O)CN3CCC(NC(=O)C(c4ccsc4)N4CCN(c5ccccc5OC)CC4)CC3)c2c1 (stereo not given in full) | 832 nM |  |
| Clc1ncnc2ncn(Cc3cccc(Br)c3)c12 | 1060 nM |  |
| COc1ccc(C2CC(c3cccs3)=NN2C(=O)CNc2ccccc2F)cc1OC (stereo not given) | 631 nM |  |
| CC(CN(C)C)C(=O)Nc1ccc(-c2ccc(-c3nc4ccccc4[nH]3)s2)cc1 (stereo not given) | 717 nM |  |
| CCC(C)c1ccc(NC(=O)Nc2ccc(Cn3ncc(N4CCCNCC4)c(Cl)c3=O)cc2)cc1 (stereo not given) | 1030 nM |  |
| COc1cc2nc(SCCCC#N)n(C3CCCCCC3)c(=N)c2cc1OC | 1140 nM |  |
| COc1ccc(C2CCC(NCCCCNC(=O)c3ccc(NC(=O)c4ccc(Cl)cc4)cc3)CC2)cc1 (stereo not given) | 627 nM |  |
| O=C(Nc1ccc(C(F)(F)F)cc1)c1ccc(S(=O)(=O)NC2CCN(CC3CCCCC3)C2)cc1 (stereo not given) | 723 nM |  |
| CCOc1cc(Cc2cnc(N)nc2N)cc(Br)c1OC | 1440 nM |  |
| COc1ccc(NC(=O)CCNc2cc(C)nc(NCc3ccccc3C)n2)cc1 | 1070 nM |  |
| O=C(C=Cc1ccc(Cl)c(Cl)c1)NCCCCCN1CCC(CCCNC(=O)c2sc3ccccc3c2Cl)CC1 | 398 nM |  |
| CCN(CC)CCN(Cc1ccc(-c2ccc(C(F)(F)F)cc2)cc1)C(=O)Cn1c(SCc2ccc(F)cc2)nc(=O)c2ccccc21 | 773 nM |  |
| CC1CN(Cc2ccc(-c3ccc(-c4nc5cc(F)ccc5[nH]4)s3)cc2)CC(C)O1 (stereo not given) | 876 nM |  |
| Cc1cc(OCCCN2CCC(NS(=O)(=O)c3cc(Br)c(Cl)s3)CC2)c2ccccc2n1 | 851 nM |  |
| COc1cccc(OC)c1CN1CCC(N(C)CCCCCCCCN2CCC(OC(=O)Nc3ccccc3-c3ccccc3)CC2)CC1 | 458 nM |  |
| Cc1sc2cc(Cl)cc(Cl)c2c1S(=O)(=O)Nc1ccc2nccc(N3CCNCC3)c2c1 | 124 nM |  |
| Cc1ccccc1NC(=O)C1CSCN1C(=O)OCc1ccccc1 (stereo not given) | 983 nM |  |
| C=CCOc1ccccc1CNCC(O)c1cc(Br)cs1 (stereo not given) | 332 nM |  |
| CCOc1cc(C(=O)Nc2ccc3nc(N(CC)CC)cc(C)c3c2)cc(OCC)c1OCC | 696 nM |  |
| COc1cc(C)nc2ccc(NC(=O)Nc3ccccc3[N+](=O)[O-])cc12 | 837 nM |  |
| COCCn1ccc2c3c(N)nc(N)nc3ccc21 | 214 nM |  |

| Compound | XC50 (Plasmodium falciparum, 3D7) | XC50 |
| --- | --- | --- |
| Cc1ccc(-c2cccc3c(NC(=O)Nc4ccc5nccc(N6CCN(C)CC6)c5c4)cccc23)cn1 | 352 nM |  |
| NC(=S)Cc1ccc2c(c1)OCO2 | 284 nM |  |
| COc1ccc2nc3cc(Cl)ccc3c(NCCN(C)C)c2c1 | 188 nM |  |
| Cc1cccc(C)c1CNc1ccnc2cc(Br)ccc12 | 172 nM |  |
| CC[C@H]1CN2CC[C@@H]1C[C@@H]2[C@@H](O)c1cc(-c2ccc(F)cc2)nc2ccc(OC)cc12 | 114 nM |  |
| CNCCNCc1cccc(-c2cccc(-c3nc4cc(C(F)(F)F)ccc4[nH]3)c2)c1 | 203 nM |  |
| CNCc1cccc2nc(-c3csc(Cc4cc(Cl)ccc4OCC(C)C)n3)[nH]c12 | 718 nM |  |
| CN1CCC(N(Cc2ccc(-c3cnc(NCc4ccccc4)nc3)cc2)S(=O)(=O)c2ccccc2)CC1 | 777 nM |  |
| Cc1cc(NC(=O)c2cccs2)ccc1OC1CCN(Cc2ccc(C#N)cc2)CC1 | 721 nM |  |
| CCOC(=O)C(Oc1ccc2ccccc2c1)C(=O)OCC | 756 nM |  |
| CCCCNC(=O)[C@H](CC1CCCCC1)NC(=O)c1ccc(O)c(-c2cccc(C(F)(F)F)c2)c1 | 773 nM |  |
| O=S(=O)(c1cc(Cl)sc1Cl)N(CCC(O)(C(F)(F)F)C(F)(F)F)Cc1cccc(O)c1 | 744 nM |  |
| COc1cc2nc(Nc3ccc(N4CCOCC4)cc3)nc(N)c2cc1OC | 871 nM |  |
| CO/C(=C\C=C\c1cc2cc(Cl)c(Cl)cc2[nH]1)C(=O)NCCCN1CCCC[C@H]1C | 791 nM |  |
| Cc1ccc(O)cc1Nc1ccnc2cc(-c3csc(CN4CCN(C)CC4)n3)ccc12 | 597 nM |  |
| N#Cc1ccc2c(c1)CCN(CCC1CCC(NC(=O)/C=C/c3nc4ccccc4s3)CC1)CC2 (stereo not given) | 829 nM |  |
| N#CCc1ccc(Nc2nccc(Nc3ccc(Oc4ccccc4)cc3)n2)cc1 | 805 nM |  |
| CC(C)CCNCc1c(O)ccc2ccccc12 | 1670 nM |  |
| CC(Nc1nc(Nc2ccc(F)cc2)nc(SCC(N)=O)n1)c1ccccc1 (stereo not given) | 496 nM |  |
| COc1ccc(N2C(=O)c3c(c4ccccc4n3C)C2c2ccccc2O)cc1 (stereo not given) | 117 nM |  |
| O=C(/C=C/c1ccc(Cl)c(Cl)c1)NCCCCCN1CCC(NC(=O)NC2CCCCC2)CC1 | 557 nM |  |
| Cc1c(CN2CCC(N3CCC(C(=O)NC4CC4)CC3)CC2)[nH]c2c(Cl)cccc12 | 1190 nM |  |
| CCC(=O)OC(CCN(CC)CC)(c1ccccc1)c1ccccc1 | 369 nM |  |
| CCN(CC)c1cc(C)c2cc(NC(=O)c3cc(=O)c4ccccc4o3)ccc2n1 | 224 nM |  |
